# Values joined by “and” are separate entries in the source; they are usually repeats but may differ in a detail not shown here. Identical values can stand only once.
# Biological target: Hrh3 protein (Rattus norvegicus, UniProt Q5PPG3)
# Sequence (Q5PPG3 whole entry): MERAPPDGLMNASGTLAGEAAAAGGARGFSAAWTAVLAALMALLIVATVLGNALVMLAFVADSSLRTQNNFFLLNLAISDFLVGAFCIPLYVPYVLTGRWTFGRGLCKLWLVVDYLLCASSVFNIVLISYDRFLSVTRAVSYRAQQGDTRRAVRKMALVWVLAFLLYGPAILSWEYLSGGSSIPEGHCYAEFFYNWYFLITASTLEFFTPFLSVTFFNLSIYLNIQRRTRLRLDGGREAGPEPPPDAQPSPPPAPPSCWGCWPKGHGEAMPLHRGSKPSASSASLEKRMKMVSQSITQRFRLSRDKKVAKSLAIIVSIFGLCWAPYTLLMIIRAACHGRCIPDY
row,SMILES,Ki
1,C[C@@H](N)Cc1c[nH]cn1,0.004 µM and 0.0005 µM
2,S=C(NC1CCCCC1)N1CCC(c2cnc[nH]2)CC1,0.004 µM and 0.002 µM
3,CNC(=S)NCCCCc1cnc[nH]1 [1-[4-(1H-imidazol-5-yl)butyl]-3-methylthiourea],0.068 µM and 0.07 µM and 0.18 µM
4,N=C(N)SCCc1cnc[nH]1 [2-(3H-imidazol-4-yl)ethylsulfanylmethanimidamide],0.00015 µM and 0.001 µM and 0.0001 µM
5,Cc1[nH]cnc1CSCCNC(=N)NCCCc1c[nH]cn1 [2-[3-(1H-imidazol-5-yl)propyl]-1-(2-{[(5-methyl-1H-imidazol-4-yl)methyl]sulfanyl}ethyl)guanidine],0.075 µM and 0.065 µM and 0.045 µM
6,C[C@H](N)Cc1c[nH]cn1 [CAS_75614-93-6],0.077 µM and 0.47 µM and 0.05 µM
7,CCCCCCC(=O)N1CCC(c2cnc[nH]2)CC1 [Carboperamide],0.0061 µM and 0.02 µM
